Experimental data from the NIST ThermoML archive (doi:10.1021/je700254t).
Numbers after ± are expanded uncertainties.

Assay: xn = mol fraction of the nth substance listed
Conditions: 101.3 kPa, Liquid

Work on `CCCO` [propan-1-ol] + ClC(Cl)Cl yielded a mass density (288.15 K, x1 = 1) of 807.69 ± 0.25 kg/m3, a mass density (293.15 K, x1 = 1) of 803.703 ± 0.25 kg/m3 and a mass density (298.15 K, x1 = 1) of 799.692 ± 0.25 kg/m3. The mass density (303.15 K, x1 = 1) was 795.65 ± 0.26 kg/m3, the mass density (308.15 K, x1 = 1) was 791.576 ± 0.26 kg/m3 and the mass density (313.15 K, x1 = 1) was 787.466 ± 0.26 kg/m3.
For `c1ccccc1` [benzene] + CCCO, the mass density (288.15 K, x2 = 0) was 884.246 ± 0.16 kg/m3, the mass density (288.15 K, x2 = 0.022) was 882.511 ± 0.16 kg/m3 and the mass density (288.15 K, x2 = 0.0557) was 880.03 ± 0.17 kg/m3. It also gave a mass density (288.15 K, x2 = 0.0984) of 876.959 ± 0.17 kg/m3, a mass density (288.15 K, x2 = 0.1632) of 872.435 ± 0.17 kg/m3 and a mass density (288.15 K, x2 = 0.2186) of 868.541 ± 0.18 kg/m3. For the same molecule, the mass density (288.15 K, x2 = 0.2385) was 867.148 ± 0.18 kg/m3, the mass density (288.15 K, x2 = 0.3046) was 862.546 ± 0.18 kg/m3 and the mass density (288.15 K, x2 = 0.3993) was 855.836 ± 0.19 kg/m3. It also gave a mass density (288.15 K, x2 = 0.4505) of 852.174 ± 0.19 kg/m3, a mass density (288.15 K, x2 = 0.5023) of 848.393 ± 0.2 kg/m3 and a mass density (288.15 K, x2 = 0.6035) of 840.846 ± 0.21 kg/m3. It also gave a mass density (288.15 K, x2 = 0.66) of 836.494 ± 0.21 kg/m3, a mass density (288.15 K, x2 = 0.7035) of 833.115 ± 0.22 kg/m3 and a mass density (288.15 K, x2 = 0.7453) of 829.801 ± 0.22 kg/m3. It also gave a mass density (288.15 K, x2 = 0.8016) of 825.211 ± 0.23 kg/m3, a mass density (288.15 K, x2 = 0.8447) of 821.474 ± 0.23 kg/m3 and a mass density (288.15 K, x2 = 0.8981) of 816.954 ± 0.24 kg/m3. For the same molecule, the mass density (288.15 K, x2 = 0.9495) was 812.375 ± 0.24 kg/m3, the mass density (293.15 K, x2 = 0) was 878.918 ± 0.17 kg/m3 and the mass density (293.15 K, x2 = 0.022) was 877.177 ± 0.17 kg/m3. It also gave a mass density (293.15 K, x2 = 0.0557) of 874.714 ± 0.17 kg/m3, a mass density (293.15 K, x2 = 0.0984) of 871.673 ± 0.17 kg/m3 and a mass density (293.15 K, x2 = 0.1632) of 867.203 ± 0.18 kg/m3. For the same molecule, the mass density (293.15 K, x2 = 0.2186) was 863.367 ± 0.18 kg/m3, the mass density (293.15 K, x2 = 0.2385) was 861.999 ± 0.18 kg/m3 and the mass density (293.15 K, x2 = 0.3046) was 857.468 ± 0.19 kg/m3. It also gave a mass density (293.15 K, x2 = 0.3993) of 850.881 ± 0.19 kg/m3, a mass density (293.15 K, x2 = 0.4505) of 847.288 ± 0.2 kg/m3 and a mass density (293.15 K, x2 = 0.5023) of 843.581 ± 0.2 kg/m3. It also gave a mass density (293.15 K, x2 = 0.6035) of 836.186 ± 0.21 kg/m3, a mass density (293.15 K, x2 = 0.66) of 831.916 ± 0.22 kg/m3 and a mass density (293.15 K, x2 = 0.7035) of 828.615 ± 0.22 kg/m3. For the same molecule, the mass density (293.15 K, x2 = 0.7453) was 825.366 ± 0.22 kg/m3, the mass density (293.15 K, x2 = 0.8016) was 820.875 ± 0.23 kg/m3 and the mass density (293.15 K, x2 = 0.8447) was 817.209 ± 0.23 kg/m3. The mass density (293.15 K, x2 = 0.8981) was 812.786 ± 0.24 kg/m3, the mass density (293.15 K, x2 = 0.9495) was 808.313 ± 0.24 kg/m3 and the mass density (298.15 K, x2 = 0) was 873.582 ± 0.17 kg/m3. The mass density (298.15 K, x2 = 0.022) was 871.937 ± 0.17 kg/m3, the mass density (298.15 K, x2 = 0.0557) was 869.383 ± 0.17 kg/m3 and the mass density (298.15 K, x2 = 0.0984) was 866.369 ± 0.18 kg/m3. For the same molecule, the mass density (298.15 K, x2 = 0.1632) was 861.955 ± 0.18 kg/m3, the mass density (298.15 K, x2 = 0.2186) was 858.172 ± 0.18 kg/m3 and the mass density (298.15 K, x2 = 0.2385) was 856.826 ± 0.19 kg/m3. It also gave a mass density (298.15 K, x2 = 0.3046) of 852.368 ± 0.19 kg/m3, a mass density (298.15 K, x2 = 0.3993) of 845.896 ± 0.2 kg/m3 and a mass density (298.15 K, x2 = 0.4505) of 842.37 ± 0.2 kg/m3. It also gave a mass density (298.15 K, x2 = 0.5023) of 838.736 ± 0.21 kg/m3, a mass density (298.15 K, x2 = 0.6035) of 831.492 ± 0.21 kg/m3 and a mass density (298.15 K, x2 = 0.66) of 827.312 ± 0.22 kg/m3. The mass density (298.15 K, x2 = 0.7035) was 824.081 ± 0.22 kg/m3, the mass density (298.15 K, x2 = 0.7453) was 820.902 ± 0.23 kg/m3 and the mass density (298.15 K, x2 = 0.8016) was 816.507 ± 0.23 kg/m3. For the same molecule, the mass density (298.15 K, x2 = 0.8447) was 812.998 ± 0.24 kg/m3, the mass density (298.15 K, x2 = 0.8981) was 808.589 ± 0.24 kg/m3 and the mass density (298.15 K, x2 = 0.9495) was 804.141 ± 0.25 kg/m3. The mass density (303.15 K, x2 = 0) was 868.233 ± 0.17 kg/m3, the mass density (303.15 K, x2 = 0.022) was 866.489 ± 0.18 kg/m3 and the mass density (303.15 K, x2 = 0.0557) was 864.034 ± 0.18 kg/m3. For the same molecule, the mass density (303.15 K, x2 = 0.0984) was 861.047 ± 0.18 kg/m3, the mass density (303.15 K, x2 = 0.1632) was 856.682 ± 0.18 kg/m3 and the mass density (303.15 K, x2 = 0.2186) was 852.95 ± 0.19 kg/m3. It also gave a mass density (303.15 K, x2 = 0.2385) of 851.625 ± 0.19 kg/m3, a mass density (303.15 K, x2 = 0.3046) of 847.234 ± 0.19 kg/m3 and a mass density (303.15 K, x2 = 0.3993) of 840.877 ± 0.2 kg/m3. It also gave a mass density (303.15 K, x2 = 0.4505) of 837.417 ± 0.2 kg/m3, a mass density (303.15 K, x2 = 0.5023) of 833.856 ± 0.21 kg/m3 and a mass density (303.15 K, x2 = 0.6035) of 826.762 ± 0.22 kg/m3. For the same molecule, the mass density (303.15 K, x2 = 0.66) was 822.69 ± 0.22 kg/m3, the mass density (303.15 K, x2 = 0.7035) was 819.512 ± 0.23 kg/m3 and the mass density (303.15 K, x2 = 0.7453) was 816.4 ± 0.23 kg/m3. The mass density (303.15 K, x2 = 0.8016) was 812.105 ± 0.24 kg/m3, the mass density (303.15 K, x2 = 0.8447) was 808.593 ± 0.24 kg/m3 and the mass density (303.15 K, x2 = 0.8981) was 804.36 ± 0.24 kg/m3. The mass density (303.15 K, x2 = 0.9495) was 800.008 ± 0.25 kg/m3, the mass density (308.15 K, x2 = 0) was 862.871 ± 0.18 kg/m3 and the mass density (308.15 K, x2 = 0.022) was 861.124 ± 0.18 kg/m3. For the same molecule, the mass density (308.15 K, x2 = 0.0557) was 858.669 ± 0.18 kg/m3, the mass density (308.15 K, x2 = 0.0984) was 855.699 ± 0.18 kg/m3 and the mass density (308.15 K, x2 = 0.1632) was 851.38 ± 0.19 kg/m3. The mass density (308.15 K, x2 = 0.2186) was 847.699 ± 0.19 kg/m3, the mass density (308.15 K, x2 = 0.2385) was 846.396 ± 0.19 kg/m3 and the mass density (308.15 K, x2 = 0.3046) was 842.067 ± 0.2 kg/m3. It also gave a mass density (308.15 K, x2 = 0.3993) of 835.823 ± 0.2 kg/m3, a mass density (308.15 K, x2 = 0.4505) of 832.428 ± 0.21 kg/m3 and a mass density (308.15 K, x2 = 0.5023) of 828.935 ± 0.21 kg/m3. The mass density (308.15 K, x2 = 0.6035) was 821.989 ± 0.22 kg/m3, the mass density (308.15 K, x2 = 0.66) was 817.981 ± 0.23 kg/m3 and the mass density (308.15 K, x2 = 0.7035) was 814.9 ± 0.23 kg/m3. For the same molecule, the mass density (308.15 K, x2 = 0.7453) was 811.856 ± 0.23 kg/m3, the mass density (308.15 K, x2 = 0.8016) was 807.61 ± 0.24 kg/m3 and the mass density (308.15 K, x2 = 0.8447) was 804.229 ± 0.24 kg/m3. For the same molecule, the mass density (308.15 K, x2 = 0.8981) was 800.093 ± 0.25 kg/m3, the mass density (308.15 K, x2 = 0.9495) was 795.838 ± 0.25 kg/m3 and the mass density (313.15 K, x2 = 0) was 857.498 ± 0.18 kg/m3. The mass density (313.15 K, x2 = 0.022) was 855.764 ± 0.18 kg/m3, the mass density (313.15 K, x2 = 0.0557) was 853.296 ± 0.19 kg/m3 and the mass density (313.15 K, x2 = 0.0984) was 850.343 ± 0.19 kg/m3. For the same molecule, the mass density (313.15 K, x2 = 0.1632) was 846.063 ± 0.19 kg/m3, the mass density (313.15 K, x2 = 0.2186) was 842.427 ± 0.2 kg/m3 and the mass density (313.15 K, x2 = 0.2385) was 841.156 ± 0.2 kg/m3. The mass density (313.15 K, x2 = 0.3046) was 836.875 ± 0.2 kg/m3, the mass density (313.15 K, x2 = 0.3993) was 830.744 ± 0.21 kg/m3 and the mass density (313.15 K, x2 = 0.4505) was 827.425 ± 0.21 kg/m3. For the same molecule, the mass density (313.15 K, x2 = 0.5023) was 823.986 ± 0.22 kg/m3, the mass density (313.15 K, x2 = 0.6035) was 817.183 ± 0.23 kg/m3 and the mass density (313.15 K, x2 = 0.66) was 813.261 ± 0.23 kg/m3. It also gave a mass density (313.15 K, x2 = 0.7035) of 810.256 ± 0.23 kg/m3, a mass density (313.15 K, x2 = 0.7453) of 807.285 ± 0.24 kg/m3 and a mass density (313.15 K, x2 = 0.8016) of 803.184 ± 0.24 kg/m3. It also gave a mass density (313.15 K, x2 = 0.8447) of 799.833 ± 0.25 kg/m3, a mass density (313.15 K, x2 = 0.8981) of 795.804 ± 0.25 kg/m3 and a mass density (313.15 K, x2 = 0.9495) of 791.644 ± 0.26 kg/m3.
`CCCO` [propan-1-ol] + c1ccccc1 showed a mass density (288.15 K, x1 = 1) of 807.69 ± 0.25 kg/m3, a mass density (293.15 K, x1 = 1) of 803.703 ± 0.25 kg/m3 and a mass density (298.15 K, x1 = 1) of 799.692 ± 0.25 kg/m3. It also gave a mass density (303.15 K, x1 = 1) of 795.65 ± 0.26 kg/m3, a mass density (308.15 K, x1 = 1) of 791.576 ± 0.26 kg/m3 and a mass density (313.15 K, x1 = 1) of 787.466 ± 0.26 kg/m3.
